The source of these data is US12098118B2 (Regents of the University of Minnesota, priority 2018, dated 2024).

Where two headings read alike, the source gives them in different places.

Data set [1] relates to mice. In words: acute in vivo bioassay of spinal opioid analgesic tolerance (ENDO-2 pre-treatment, warm water immersion tail flick test). The text has this: To evaluate the effects of the compounds in opioid tolerance an acute in vivo bioassay of opioid analgesic tolerance was employed. In this instance, either a large dose of the mu opioid receptor selective neuropeptide ENDO-2 is given or vehicle. When the analgesic effects are no longer evident, a second analgesic dose of ENDO-2 is given. The second analgesic dose of ENDO-2 is effective in the group pre-treated with saline, but not in the group that was pre-treated with the large dose of ENDO-2. When agmatine or when one of the SSA is given together with the large pre-treatment dose of ENDO-2, the second analgesic dose of ENDO-2 is effective. In this bioassay, agmatine and most of the SSAs prevented the development of opioid tolerance.
Formula I compounds from Table 2 were evaluated for their impact on the development of opioid analgesic tolerance when dosed central (intrathecally) and systemically (intraperitoneally). […] When a high dose of ENDO-2 is intrathecally injected a subsequent analgesic dose is no longer effective (30 minutes later) (Stone et al., 1997). This is a model of opioid-induced analgesic tolerance.
When that second group received a second injection of ENDO-2 (same dose as in the SAL group), the analgesic effect was not observed. Analgesic tolerance to ENDO-2 was, therefore, induced. […] AG 4 nmol (third bar from left).

Data set [2] deals with mice. In words: development of central morphine tolerance (intrathecal morphine, warm water tail flick test). Type of data set: in vivo. Conditions: for ED50 (nmol, i.t.): tail flick day 4. On the procedure: On day 4, four cumulative doses of morphine were given intrathecally to assess tolerance in the warm water tail flick test.
(§1) Doses were administered t.i.d. every 8 hours for 4 days. On day 6, four cumulative doses of morphine were given subcutaneously to assess tolerance in the warm water (52° C.) tail flick test.

For data set [3], the system named is mice. In words: development of chronic systemic morphine tolerance (s.c. morphine, warm water 52° C. tail flick test). The class given is in vivo. Conditions: for development of systemic morphine tolerance: systemic co-administration with morphine (FIGS. 7B-D). On the procedure:
as §1

The subject of data set [4] is mice with chronic pain induced by nerve-injury. In words: spinal nerve injury-induced neuropathic pain, von Frey monofilament tactile hypersensitivity. Type of data set: in vivo.
In data set [5] the test system is nerve-injured mice. In words: rotarod assay of motor dysfunction and sedation. Conditions: for rotarod performance: intravenously administered, doses effective in nerve-injured mice, 30 minutes post-injection.
Data set [6] can be described thus: cardiovascular measures / heart rate after i.v. injection. Conditions: in vivo.
The next data set has as its system female mice. In words: oral oxycodone self-administration model of opioid addiction (active vs control lever). The class given is in vivo. On the procedure:
FIGS. 6A and 6B show an in vivo model of opioid addiction in mice. […] Open symbols represent the lever pressing of mice on the “control” lever that result in no reward. Solid symbols represent the lever pressing of mice on the “active lever” which results in delivery of a 70 μL volume of oxycodone into a receptacle. The mice lick or drink the opioid from the receptacle.
Formula I compounds were assessed for similar effects in a model of oral oxycodone self-administration. […] Standard enclosed operant conditioning chambers modeled opioid addiction where in response to a light cue, mice have an opportunity to choose between one of two levers. Pressing one lever (the “Active” lever) results in delivery of a small quantity of oxycodone to a drinking receptacle where the mouse can lick or drink the fluid. Pressing the other lever (termed “Control” lever) results in no reward. In this experiment, female mice were separated into two groups; both groups were trained to lever press for oxycodone reward after pressing the “Active” lever of a two lever choice. Initially one lever press results in one delivery of opioid fluid. Pressing the “control” lever offers no reward. […] On day 15, they were required to press the active lever 3 times to seek the reward. […] The mice were given six injections over a period of 8 days. […] Responses were monitored from Day 20-40 of the experiment. […]

For data set [7] the following is noted: in vivo.
The test system of data set [8] is nerve-injured mice. Conditions: intrathecal, previously observed; cited from earlier work.
A further data set concerns rats. Conditions: Morgan et al. 2002; cited from earlier work.
[9] abbreviates: morphine i.t. ED50 (interval in brackets) after pre-treatment Morphine (10 nmol, i.t.) + compound (10 nmol, i.t.) or VEH b.i.d. 3 days.
[10] abbreviates: co-administered intrathecally (it) with tolerance-inducing ENDO-2 pre-treatment, agmatine 4 nmol.
Setting [11] is: delivered systemically, 100 mg/kg ip, with intrathecal ENDO-2 pre-treatment.
[12] abbreviates: delivered systemically, ip, dose not given.
Setting [13] is: IV, 0.45, 1.35, 4.5 micromoles/kg, induction and maintenance phase, ipsilateral hindpaw.

As for `CCOC(=O)/N=C(/N)NCCCCNC(=O)OCC` [J-1, ethyl (amino((4-((ethoxycarbonyl)amino)butyl)amino)methylene)carbamate], in the data set on mice [1] (systemically, dose range of 1-30 mg/kg), the “development of opioid analgesic tolerance to ENDO-2” value (“development … to ENDO-2” below) is “did not prevent the development of opioid analgesic tolerance”. In the data set with mice [2] (intrathecal co-administration with morphine (FIG. 7A)), the “development of central morphine tolerance” value is on record as “prevented the development of central morphine tolerance”. For the same molecule, the “ED50 (nmol, i.t.)” value in the data set with mice [2] (setting [9]) was 2.86 (2.41, 3.40) nmol; in the data set with mice [2] (morphine i.t. ED50 (interval in brackets) after pre-treatment Saline + compound (10 nmol, i.t.) b.i.d. 3 days), 3.82 (2.95, 4.94) nmol. Besides, in the data set with mice [3], the “development of systemic morphine tolerance” value is listed as “reduces or prevents the development of systemic morphine tolerance”. The “time to onset of effect compared to agmatine” value in data set [4] (mouse, in vivo) was “significantly earlier time to onset of effect”.

With `CCOC(=O)NCCCCNC(=N)N` [J-2, ethyl (4-guanidinobutyl)carbamate], the “development … to ENDO-2” value in the data set with mice [1] (setting [10]) and with mice [1] (setting [11]) was “prevented the development of opioid analgesic tolerance” each time. Besides, the “development of systemic morphine tolerance” value in the data set on mice [3] is reported as “reduces or prevents the development of systemic morphine tolerance”.

As for `CCOC(=O)/N=C(\NCCCCNC(C)=O)NC(=O)OCC` [J-3], the “development … to ENDO-2” value in the data set with mice [1] (setting [10]) and with mice [1] (setting [12]) was “prevented the development of opioid analgesic tolerance” throughout. Besides, in [4] (IV, 0.45, 1.35, 4.5 micromoles/kg), the “response compared to the response of agmatine” value is on record as “No significant difference”. In addition, the “hindpaw withdrawal thresholds (von Frey)” value in data set [4] (setting [13]) is recorded as “the hindpaw withdrawal thresholds elevated toward control levels of responding”. Besides, the rotarod performance entry in the data set with nerve-injured mice [5] is recorded as “did not impact rotarod performance”. Moreover, in [6], the “impact on cardiovascular measures” value is reported as “no impact on cardiovascular measures”.

Turning to `CC(=O)NCCCCN/C(=N\C(=O)OC(C)(C)C)NC(=O)OC(C)(C)C` [J-4, 4-(2,3-bis(tert-butyloxycarbonyl)guanidino)butylacetamide], the “development … to ENDO-2” value with mice [1] (setting [12]) is reported as “prevented the development of opioid analgesic tolerance”. Further, in data set [4] (setting [13]), the “hindpaw withdrawal thresholds (von Frey)” value was “the hindpaw withdrawal thresholds elevated toward control levels of responding”. Further, in [4] (IV, 1.35 micromoles/kg, maintenance phase for J-4 (FIG. 2F vs 2B)), the “reduction of established neuropathic pain compared with agmatine at the same dose” value is reported as “distinctly greater than that of agmatine at the same dose”. For the same molecule, the “preference for active versus control lever (oxycodone)” value is listed as “showed greatly reduced preference for the active versus the control lever” in the data set with female mice (intraperitoneal (IP) injection prior to session (FIG. 6B)) and “showed little preference for the lever after injections were initiated” in the data set with female mice (intravenous injections, 30 mg/kg, six injections over 8 days). Further, the rotarod performance result with nerve-injured mice [5] is listed as “did not impact rotarod performance”. In addition, the “impact on cardiovascular measures” value in data set [6] was “no impact on cardiovascular measures”.

Take `CC(=O)NCCCCNC(=N)N` [J-5, N-(4-guanidinobutyl)acetamide]: the “development … to ENDO-2” value in the data set with mice [1] (setting [10]) and in the data set with mice [1] (setting [11]) was “prevented the development of opioid analgesic tolerance” each time.

Regarding `CCOC(=O)/N=C(/N)NCCCCNC(C)=O` [J-6], the “development … to ENDO-2” value in the data set with mice [1] (setting [10]) and with mice [1] (setting [11]) was “prevented the development of opioid analgesic tolerance” throughout.

On to `CCOC(=O)/N=C(/N)NCCCCN` [J-7, 4-(2-(ethoxycarbonyl)guanidino) butan-1-aminium 2,2,2-trifluoroacetate], for which the “development … to ENDO-2” value in the data set on mice [1] (setting [11]) was “prevented the development of opioid analgesic tolerance”; with mice [1] (systemically delivered, 10 mg/kg dose), “prevented the development of opioid analgesic tolerance”.

For `CCOC(=O)/N=C(\NCCCCN)NC(=O)OCC.Cl` [J-8, 4-(2,3-bis(ethoxycarbonyl)guanidino)butan-1-aminium chloride], the “development … to ENDO-2” value in the data set on mice [1] (setting [10]) and with mice [1] (setting [12]) was “prevented the development of opioid analgesic tolerance” each time. For the same molecule, in data set [4] (IV, five doses 0.045, 0.0135, 0.45, 1.35, 4.5 micromoles/kg (approximately 1-100 mg/kg), induction phase), the “hindpaw withdrawal thresholds (von Frey)” value is recorded as “the hindpaw withdrawal thresholds elevated significantly toward control levels of responding in a dose-dependent manner”. Further, in the data set with nerve-injured mice [5] (early side effects studies), the motor impairment result is reported as “no impact”. Further, in [6], the “impact on cardiovascular measures” value is reported as “no impact”.

For `CN1CC[C@]23c4c5ccc(O)c4O[C@H]2[C@@H](O)C=C[C@H]3[C@H]1C5` [Morphine, morphine, reference compound], the “ED50 (nmol, i.t.)” value in the data set with mice [2] (setting [9]) is 10.84 (4.94, 23.82) nmol. The ED50 with mice [3] (Mus musculus, sc, 144 h, morphine s.c. ED50 after pre-treatment Morphine (10 mg/kg, s.c.) + compound (3 mg/kg s.c.) or VEH t.i.d. 4 days, tail flick day 6, read-out: ED50 (95% CI) (mg/kg, s.c.)) was 24.9 mg/kg.

As for `N=C(N)NCCCCN` [agmatine, 1-(4-aminobutyl)guanidine, reference compound], the “development … to ENDO-2” value in the data set with mice [1] (setting [10]) was “protected against the induction of opioid tolerance”. The “development of systemic morphine tolerance” value in the data set on mice [3] is reported as “reduces or prevents the development of systemic morphine tolerance”. In addition, the “hindpaw withdrawal thresholds (von Frey)” value in data set [4] (setting [13]) was “the hindpaw withdrawal thresholds elevated toward control levels of responding”. Moreover, the “impact on cardiovascular measures” value in [7] is “no impact on cardiovascular measures”. For the same molecule, the values for the rotarod performance entry in the data set on nerve-injured mice [8] and in the data set on nerve-injured mice [5] were “does not impact rotarod performance” and “did not impact rotarod performance”, respectively. Further, the heroin-induced self-administration result with rats was “diminishes heroin-induced self-administration in rats”.
